Each molecule was assayed on pain reactions caused by phenylbenzoquinone (assay: Siegmund test with phenylbenzoquinone (analgesic activity after oral administration)). Settings: Mus musculus, po, read-out: AD50 confidence limits.
Format: in vivo, male mice, CD1 strain (Charles River)
Protocol: This method makes it possible to assess the analgesic activity of molecules having both a peripheral and a central action.
Male mice of the CD1 strain (Charles River) and OF1 strain (Iffa Credo), weighing from 19 to 22 g, were used for the Siegmund test and the Eddy test respectively. The tests were carried out at an ambient temperature of 21°±2° C.
The products were suspended in an aqueous mixture of 1% gum arabic, 0.1% sodium chloride and 0.001% Tween 80.
One hour after administration of the product studied, 0.20 to 0.22 ml of a 0.02% aqueous-alcoholic solution of phenylbenzoquinone is administered to the mice intraperitoneally.
The number of pain reactions (twists and stretches) is counted from the 5th to the 10th minute.
The products of the examples studied were administered to groups of 6 to 12 mice by gastric intubation (0.5 ml/20 g), one hour before phenylbenzoquinone, according to the following dosage schedule:
The percentage inhibition of pain manifestations was calculated from the mean numbers of twists per group.
The 50% active doses and their confidence limits were determined from the linear regression carried out on the parameters measured.
Work on Cl.Cl.Fc1ccc(N2CCNCC2)c(F)c1 [Example 1, 4-(2,4-Difluorophenyl)piperazine dihydrochloride] yielded an ED50 of 2.16 mg/kg. In the case of Fc1ccc(C2=CCN(CCSc3nnc4ccccn34)CC2)cc1 [Example 45, 3-[2-(4-(4-Fluorophenyl)-1,2,3,6-tetrahydropyridin-1-yl)ethylmercapto]-1,2,4-triazolo(4,3-a)pyridine], the ED50 is reported as 33 mg/kg. Clc1ccc(C2=CCN(CCSc3nnc4ccccn34)CC2)cc1 [Example 48, 3-[2-(4-(4-Chlorophenyl)-1,2,3,6-tetrahydropyridin-1-yl)ethylmercapto]-1,2,4-triazolo(4,3-a)pyridine] gave an ED50 of 16.1 mg/kg.

Same assay, conditions: Mus musculus; 50% active dose with confidence limits; oral (gastric intubation), 1 hour before phenylbenzoquinone i.p.; twists and stretches counted 5th to 10th minute; mice; read-out: AD50 confidence limits
For FC(F)(F)c1cccc(N2CCN(CCSc3nnc4c(C(F)(F)F)cccn34)CC2)c1.O=C(O)/C=C\C(=O)O [Example 24, 3-[2-(4-(3-Trifluoromethylphenyl)piperazin-1-yl)ethylmercapto]-8-trifluoromethyl-1,2,4-triazolo(4,3-a)pyridine maleate], the ED50 was 4.53 mg/kg. For Fc1ccc(N2CCN(CCSc3nnc4c(C(F)(F)F)cccn34)CC2)c(F)c1 [Example 28, 3-[2-(4-(2,4-Difluorophenyl)piperazin-1-yl)ethylmercapto]-8-trifluoromethyl-1,2,4-triazolo(4,3-a)pyridine], the ED50 was 22.4 mg/kg. In the case of Cc1ccc2nnc(SCCN3CCN(c4cccc(C(F)(F)F)c4)CC3)n2c1.Cl.Cl [Example 31, 3-[2-(4-(3-Trifluoromethylphenyl)piperazin-1-yl)ethylmercapto]-6-methyl-1,2,4-triazolo(4,3-a)pyridine dihydrochloride], the ED50 is reported as 3.6 mg/kg. Fc1ccc(N2CCN(CCCSc3nnc4c(C(F)(F)F)cccn34)CC2)c(F)c1 [Example 32, 3-[3-(4-(2,4-Difluorophenyl)piperazin-1-yl)propylmercapto]-8-trifluoromethyl-1,2,4-triazolo(4,3-a)pyridine] showed an ED50 of 12.6 mg/kg. FC(F)(F)c1cccc(N2CCN(CCSc3nnc4ccccn34)CC2)c1.O=C(O)/C=C\C(=O)O [Example 33, 3-[2-(4-(3-Trifluoromethylphenyl)piperazin-1-yl)ethylmercapto]-1,2,4-triazolo(4,3-a)pyridine maleate] showed an ED50 of 1.71 mg/kg. For Cl.Cl.Fc1ccccc1N1CCN(CCSc2nnc3ccccn23)CC1 [Example 41, 3-[2-(4-(2-Fluorophenyl)piperazin-1-yl)ethylmercapto]-1,2,4-triazolo(4,3-a)pyridine dihydrochloride], the ED50 was 3.19 mg/kg. With Fc1ccc(N2CCN(CCCSc3nnc4ccccn34)CC2)c(F)c1 [Example 43, 3-[3-(4-(2,4-Difluorophenyl)piperazin-1-yl)propylmercapto]-1,2,4-triazolo(4,3-a)pyridine] the ED50 was 13.9 mg/kg. In the case of Fc1ccc(N2CCN(CCSc3nnc4ccccn34)CC2)c(F)c1 [Example 44, 3-[2-(4-(2,4-Difluorophenyl)piperazin-1-yl)ethylmercapto]-1,2,4-triazolo(4,3-a)pyridine], the ED50 is reported as 11 mg/kg. Clc1cccc(N2CCN(CCSc3nnc4ccccn34)CC2)c1 [Example 49, 3-[2-(4-(3-Chlorophenyl)piperazin-1-yl)ethylmercapto]-1,2,4-triazolo(4,3-a)pyridine] was tested, and the ED50 was 2.45 mg/kg. FC(F)(F)c1cccc(N2CCN(CCCSc3nnc4ccc5ccccc5n34)CC2)c1 [Example 57, 1-[3-(4-(3-Trifluoromethylphenyl)piperazin1-yl)propylmercapto]-s-triazolo(4,3-a)quinoline] showed an ED50 of 8.56 mg/kg. Cc1cc2ccccc2n2c(SCCCN3CCN(c4cccc(C(F)(F)F)c4)CC3)nnc12 [Example 59, 1-[3-(4-(3-Trifluoromethylphenyl)piperazin-1-yl)propylmercapto]-4-methyl-s-triazolo(4,3-a)quinoline] gave an ED50 of 14.1 mg/kg. Cc1cc2nnc(SCCN3CCN(c4ccc(F)cc4F)CC3)n2c2ccccc12 [Example 62, 1-[2-(4-(2,4-Difluorophenyl)piperazin-1-yl)ethylmercapto]-5-methyl-s-triazolo(4,3-a)quinoline] showed an ED50 of 11 mg/kg. Cc1cc2ccccc2n2c(SCCN3CCN(c4cccc(C(F)(F)F)c4)CC3)nnc12 [Example 63, 1-[2-(4-(3-Trifluoromethylphenyl)piperazin-1-yl)ethylmercapto]-4-methyl-s-triazolo(4,3-a)quinoline] was tested, and the ED50 was 8.17 mg/kg. Work on Cc1cc2ccccc2n2c(SCCCN3CCN(c4ccc(F)cc4F)CC3)nnc12 [Example 66, 1-[3-(4-(2,4-Difluorophenyl)piperazin-1-yl)propylmercapto]-4-methyl-s-triazolo(4,3-a)quinoline] yielded an ED50 of 17.9 mg/kg.

From patent publication US4886805A, “Novel aminoalkylthio derivatives of triazolopyridine or triazoloquinoline, the processes for their preparation, and drugs, useful especially as analgesics, in which they are present” (Centre D'Activite Et De Recherches Pharmaceutique …, priority 1986, dated 1989)
